Test results taken from ChEMBL document CHEMBL4813981, “Synthesis and in vitro antibacterial activity of new aminothiazole-oximepiperidone cephalosporins” (2021).

What was measured:
Klebsiella pneumoniae [1] = experiment: Antibacterial activity against Carbapenem- resistant Klebsiella pneumoniae KR 15-7 assessed as reduction in bacterial growth in the presence of Avibactam; assay type: functional
Enterobacter cloacae [2] = experiment: Antibacterial activity against Enterobacter cloacae 17-2 assessed as reduction in bacterial growth
Acinetobacter baumannii [3] = experiment: Antibacterial activity against Carbapenem- resistant Acinetobacter baumannii 17-13 assessed as reduction in bacterial growth in the presence of Avibactam; assay type: functional
Klebsiella pneumoniae [4] = experiment: Antibacterial activity against Multidrug resistant Klebsiella pneumoniae KR 15-1 assessed as reduction in bacterial growth; assay type: functional
Pseudomonas aeruginosa [5] = experiment: Antibacterial activity against Carbapenem- resistant Pseudomonas aeruginosa 17-8 assessed as reduction in bacterial growth in the presence of Avibactam; assay type: functional
Acinetobacter baumannii [6] = experiment: Antibacterial activity against Carbapenem- resistant Acinetobacter baumannii 17-9 assessed as reduction in bacterial growth in the presence of Avibactam; assay type: functional
Klebsiella pneumoniae [7] = experiment: Bactericidal activity against Carbapenem- resistant Klebsiella pneumoniae KR 15-8 assessed as reduction in bacterial growth in the presence of avibactam; assay type: functional
Escherichia coli [8] = experiment: Bactericidal activity against ESBLs positive Carbapenem-sensitive Escherichia coli 17-3 assessed as reduction in bacterial growth; assay type: functional
Escherichia coli [9] = experiment: Antibacterial activity against ESBLs negative Carbapenem-sensitive Escherichia coli 17-1 assessed as reduction in bacterial growth in the presence of Avibactam; assay type: functional
Escherichia coli [10] = experiment: Antibacterial activity against Escherichia coli ATCC 35218 assessed as reduction in bacterial growth; assay type: functional
Klebsiella pneumoniae [11] = experiment: Antibacterial activity against Klebsiella pneumoniae ATCC BAA-1705 assessed as reduction in bacterial growth in the presence of Avibactam; assay type: functional
Enterobacter cloacae [12] = experiment: Antibacterial activity against Enterobacter cloacae 17-2 assessed as reduction in bacterial growth in the presence of Avibactam; assay type: functional
Acinetobacter baumannii [13] = experiment: Antibacterial activity against Carbapenem- resistant Acinetobacter baumannii 17-12 assessed as reduction in bacterial growth in the presence of Avibactam; assay type: functional
Enterobacter cloacae [14] = experiment: Bactericidal activity against Enterobacter cloacae 17-9 assessed as reduction in bacterial growth in the presence of avibactam; assay type: functional
Klebsiella pneumoniae [15] = experiment: Antibacterial activity against ESBLs positive Carbapenem-sensitive Klebsiella pneumoniae 17-7 assessed as reduction in bacterial growth in the presence of Avibactam; assay type: functional
Klebsiella pneumoniae [16] = experiment: Antibacterial activity against Carbapenem- resistant Klebsiella pneumoniae KR 15-4 assessed as reduction in bacterial growth
Acinetobacter baumannii [17] = experiment: Antibacterial activity against Carbapenem- resistant Acinetobacter baumannii 17-10 assessed as reduction in bacterial growth in the presence of Avibactam; assay type: functional
Pseudomonas aeruginosa [18] = experiment: Bactericidal activity against carbapenem-sensitive Pseudomonas aeruginosa 17-9 assessed as reduction in bacterial growth; assay type: functional
Acinetobacter baumannii [19] = experiment: Antibacterial activity against Multidrug resistant Acinetobacter baumannii AR 15-2 assessed as reduction in bacterial growth in the presence of Avibactam; assay type: functional
Klebsiella pneumoniae [20] = experiment: Bactericidal activity against ESBLs negative Carbapenem-sensitive Klebsiella pneumoniae 17-16 assessed as reduction in bacterial growth in the presence of avibactam; assay type: functional
Klebsiella pneumoniae [21] = experiment: Bactericidal activity against ESBLs negative Carbapenem-sensitive Klebsiella pneumoniae 17-17 assessed as reduction in bacterial growth in the presence of avibactam; assay type: functional
Klebsiella pneumoniae [22] = experiment: Antibacterial activity against Carbapenem- resistant Klebsiella pneumoniae KR 15-10 assessed as reduction in bacterial growth in the presence of Avibactam; assay type: functional
Klebsiella pneumoniae [23] = experiment: Bactericidal activity against ESBLs positive Carbapenem-sensitive Klebsiella pneumoniae 17-2 assessed as reduction in bacterial growth; assay type: functional
Klebsiella pneumoniae [24] = experiment: Antibacterial activity against ESBLs positive Carbapenem-sensitive Klebsiella pneumoniae 17-3 assessed as reduction in bacterial growth in the presence of Avibactam; assay type: functional
Klebsiella pneumoniae [25] = experiment: Antibacterial activity against ESBLs positive Carbapenem-sensitive Klebsiella pneumoniae 17-15 assessed as reduction in bacterial growth in the presence of Avibactam; assay type: functional
Klebsiella pneumoniae [26] = experiment: Antibacterial activity against ESBLs positive Carbapenem-sensitive Klebsiella pneumoniae 17-1 assessed as reduction in bacterial growth in the presence of Avibactam; assay type: functional
Pseudomonas aeruginosa [27] = experiment: Bactericidal activity against Pseudomonas aeruginosa ATCC 27853 assessed as reduction in bacterial growth in the presence of avibactam; assay type: functional
Escherichia coli [28] = experiment: Bactericidal activity against ESBLs negative carbapenem-sensitive Escherichia coli 17-9 assessed as reduction in bacterial growth in the presence of avibactam; assay type: functional
Pseudomonas aeruginosa [29] = experiment: Antibacterial activity against Carbapenem- sensitive Pseudomonas aeruginosa 17-11 assessed as reduction in bacterial growth in the presence of Avibactam; assay type: functional
Escherichia coli [30] = experiment: Antibacterial activity against ESBLs positive Carbapenem-sensitive Escherichia coli 17-22 assessed as reduction in bacterial growth in the presence of Avibactam; assay type: functional
Escherichia coli [31] = experiment: Antibacterial activity against Escherichia coli NCTC 13353 assessed as reduction in bacterial growth in the presence of Avibactam; assay type: functional
Klebsiella pneumoniae [32] = experiment: Bactericidal activity against Carbapenem- resistant Klebsiella pneumoniae KR 15-5 assessed as reduction in bacterial growth in the presence of avibactam; assay type: functional
Acinetobacter baumannii [33] = experiment: Antibacterial activity against Multidrug resistant Acinetobacter baumannii AR 15-3 assessed as reduction in bacterial growth; assay type: functional
Klebsiella pneumoniae [34] = experiment: Antibacterial activity against Multidrug resistant Klebsiella pneumoniae KR 15-3 assessed as reduction in bacterial growth; assay type: functional
Klebsiella pneumoniae [35] = experiment: Antibacterial activity against Klebsiella pneumoniae ATCC 700603 assessed as reduction in bacterial growth; assay type: functional
Klebsiella pneumoniae [36] = experiment: Antibacterial activity against ESBLs positive Carbapenem-sensitive Klebsiella pneumoniae 17-12 assessed as reduction in bacterial growth in the presence of Avibactam; assay type: functional
Pseudomonas aeruginosa [37] = experiment: Bactericidal activity against carbapenem-sensitive Pseudomonas aeruginosa 17-10 assessed as reduction in bacterial growth; assay type: functional
Pseudomonas aeruginosa [38] = experiment: Antibacterial activity against Carbapenem- sensitive Pseudomonas aeruginosa 17-24 assessed as reduction in bacterial growth in the presence of Avibactam; assay type: functional
Pseudomonas aeruginosa [39] = experiment: Bactericidal activity against carbapenem-sensitive Pseudomonas aeruginosa 17-10 assessed as reduction in bacterial growth in the presence of avibactam; assay type: functional
Pseudomonas aeruginosa [40] = experiment: Antibacterial activity against Carbapenem- sensitive Pseudomonas aeruginosa 17-21 assessed as reduction in bacterial growth in the presence of Avibactam; assay type: functional
Klebsiella aerogenes [41] = experiment: Antibacterial activity against Enterobacter aerogenes 15-3 assessed as reduction in bacterial growth
Klebsiella aerogenes [42] = experiment: Bactericidal activity against Enterobacter aerogenes 17-4 assessed as reduction in bacterial growth in the presence of avibactam; assay type: functional
Escherichia coli [43] = experiment: Bactericidal activity against Escherichia coli ATCC 25922 assessed as reduction in bacterial growth in the presence of avibactam; assay type: functional
Escherichia coli [44] = experiment: Antibacterial activity against Escherichia coli 15-4 overexpressing extended spectrum beta-lactamases assessed as reduction in bacterial growth in the presence of Avibactam; assay type: functional
Acinetobacter baumannii [45] = experiment: Antibacterial activity against Carbapenem- resistant Acinetobacter baumannii 17-2 assessed as reduction in bacterial growth in the presence of Avibactam; assay type: functional
Klebsiella pneumoniae [46] = experiment: Antibacterial activity against ESBLs negative Carbapenem-sensitive Klebsiella pneumoniae 17-19 assessed as reduction in bacterial growth; assay type: functional
Escherichia coli [47] = experiment: Antibacterial activity against ESBLs negative Carbapenem-sensitive Escherichia coli 17-19 assessed as reduction in bacterial growth; assay type: functional

CC(C)(O/N=C(\C(=O)N[C@@H]1C(=O)N2C(C(=O)[O-])=C(C[n+]3ccccc3)CS[C@H]12)c1csc(N)n1)C(=O)O [CEFTAZIDIME]
0.5 µg/mL: MIC (Escherichia coli [9]) | MBC (Pseudomonas aeruginosa [18]) | MIC (Pseudomonas aeruginosa [29]) | MIC (Escherichia coli [31]) | MBC (Pseudomonas aeruginosa [39]) | MBC (Klebsiella aerogenes [42]) | MIC (Escherichia coli [44])
16 µg/mL: MIC (Pseudomonas aeruginosa [5])
> 2 µg/mL: MBC (Enterobacter cloacae [14])
4 µg/mL: MBC (Klebsiella pneumoniae [7]) | MIC (Klebsiella pneumoniae [11]) | MIC (Klebsiella pneumoniae [15]) | MIC (Acinetobacter baumannii [17]) | MBC (Klebsiella pneumoniae [23]) | MBC (Pseudomonas aeruginosa [27]) | MBC (Klebsiella pneumoniae [32])
1 µg/mL: MIC (Enterobacter cloacae [12]) | MIC (Klebsiella pneumoniae [25]) | MIC (Klebsiella pneumoniae [26]) | MIC (Escherichia coli [30]) | MIC (Klebsiella pneumoniae [36]) | MIC (Pseudomonas aeruginosa [40]) | MBC (Escherichia coli [43])
2 µg/mL: MIC (Klebsiella pneumoniae [1]) | MIC (Acinetobacter baumannii [3]) | MBC (Escherichia coli [8]) | MIC (Klebsiella pneumoniae [22]) | MIC (Klebsiella pneumoniae [24]) | MIC (Pseudomonas aeruginosa [38])
> 64 µg/mL: MIC (Klebsiella pneumoniae [4]) | MIC (Klebsiella pneumoniae [16]) | MIC (Acinetobacter baumannii [33]) | MIC (Klebsiella pneumoniae [34]) | MIC (Klebsiella aerogenes [41])
64 µg/mL: MIC (Enterobacter cloacae [2])
32 µg/mL: MIC (Klebsiella pneumoniae [35])
8 µg/mL: MIC (Acinetobacter baumannii [6]) | MIC (Acinetobacter baumannii [13]) | MIC (Acinetobacter baumannii [19]) | MBC (Pseudomonas aeruginosa [37]) | MIC (Acinetobacter baumannii [45])
0.06 µg/mL: MIC (Escherichia coli [10])
0.25 µg/mL: MBC (Klebsiella pneumoniae [20]) | MBC (Klebsiella pneumoniae [21]) | MBC (Escherichia coli [28])

Nc1nc(/C(=N/OCc2cc(=O)c(O)cn2O)C(=O)N[C@@H]2C(=O)N3C(C(=O)O)=CCS[C@H]23)cs1
0.125 µg/mL: MIC (Klebsiella pneumoniae [25]) | MIC (Klebsiella pneumoniae [36])
0.06 µg/mL: MBC (Klebsiella pneumoniae [20])
0.5 µg/mL: MIC (Escherichia coli [10]) | MIC (Escherichia coli [30]) | MIC (Escherichia coli [31]) | MBC (Escherichia coli [43]) | MIC (Escherichia coli [44])
64 µg/mL: MIC (Klebsiella pneumoniae [35])
4 µg/mL: MIC (Klebsiella pneumoniae [24]) | MBC (Pseudomonas aeruginosa [27]) | MBC (Klebsiella pneumoniae [32]) | MIC (Pseudomonas aeruginosa [38]) | MBC (Pseudomonas aeruginosa [39])
8 µg/mL: MBC (Pseudomonas aeruginosa [37])
2 µg/mL: MIC (Acinetobacter baumannii [3]) | MBC (Escherichia coli [8]) | MIC (Klebsiella pneumoniae [11]) | MBC (Enterobacter cloacae [14]) | MIC (Klebsiella pneumoniae [15]) | MBC (Klebsiella pneumoniae [23]) | MBC (Escherichia coli [28]) | MIC (Pseudomonas aeruginosa [29]) | MIC (Pseudomonas aeruginosa [40])
0.25 µg/mL: MIC (Escherichia coli [9]) | MIC (Klebsiella pneumoniae [26])
1 µg/mL: MIC (Klebsiella pneumoniae [1]) | MIC (Enterobacter cloacae [12]) | MBC (Klebsiella pneumoniae [21]) | MIC (Klebsiella pneumoniae [22]) | MIC (Escherichia coli [47]) | MBC (Klebsiella aerogenes [42])
> 64 µg/mL: MIC (Enterobacter cloacae [2]) | MIC (Klebsiella pneumoniae [4]) | MIC (Klebsiella pneumoniae [16]) | MIC (Acinetobacter baumannii [33]) | MIC (Klebsiella pneumoniae [34]) | MIC (Klebsiella aerogenes [41])
≤ 0.03 µg/mL: MIC (Klebsiella pneumoniae [46])
16 µg/mL: MIC (Pseudomonas aeruginosa [5]) | MIC (Acinetobacter baumannii [6]) | MBC (Klebsiella pneumoniae [7]) | MIC (Acinetobacter baumannii [13]) | MIC (Acinetobacter baumannii [17]) | MBC (Pseudomonas aeruginosa [18]) | MIC (Acinetobacter baumannii [19]) | MIC (Acinetobacter baumannii [45])

C[C@@H](O)[C@H]1C(=O)N2C(C(=O)O)=C(S[C@@H]3CN[C@H](C(=O)N(C)C)C3)[C@H](C)[C@H]12 [MEROPENEM]
< 0.03 µg/mL: MIC (Klebsiella pneumoniae [46]) | MIC (Escherichia coli [47])
